In patent US20080200454A1, “CARBON-LINKED TETRAHYDRO-PYRAZOLO-PYRIDINE MODULATORS OF CATHEPSIN S” (priority 2007, published 2008) one finds IC50 data, which are given here for 27 compounds.

pIC50: −log10 of the molar value. Where a name gives a salt, the structure may show the parent alone.

In the first assay the target is Recombinant human cathepsin S (CatS) (Homo sapiens, UniProt P25774). In words: Recombinant human cathepsin S (CatS) inhibition assay, fluorogenic substrate Z-Valine-Valine-Arginine-AMC.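 Also: Baculovirus-expressed CatS in pH 5.0 sodium acetate buffer with DTT and NaCl, fluorescence read each minute over 20 min, inhibition derived from rate slope.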
Sequence of Recombinant human cathepsin S (CatS) (P25774 115-331): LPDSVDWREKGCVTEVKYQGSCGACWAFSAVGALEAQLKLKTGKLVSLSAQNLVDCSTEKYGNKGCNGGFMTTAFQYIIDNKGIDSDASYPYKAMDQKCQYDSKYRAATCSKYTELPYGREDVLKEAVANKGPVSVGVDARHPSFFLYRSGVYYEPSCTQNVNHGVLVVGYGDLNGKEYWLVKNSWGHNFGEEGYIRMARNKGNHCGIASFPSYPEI
Conditions: not given
For the compound `COC(=O)Cc1cccc(C#Cc2cc(-c3nn(CCCN4CCOCC4)c4c3CN(S(C)(=O)=O)CC4)ccc2Cl)c1` [Example 11, (3-{2-Chloro-5-[5-methanesulfonyl-1-(3-morpholin-4-yl-propyl)-4,5,6,7-tetrahydro-1H-pyrazolo[4,3-c]pyridin-3-yl]-phenylethynyl}-phenyl)-acetic acid methyl ester], the pIC50 (in general, −log10 of the IC50, conventionally taken in molar units) is 5.59.

In the case of `CS(=O)(=O)N1CCc2c(c(-c3ccc(Cl)c(C#Cc4ccc(Oc5ccc(I)cc5)cc4)c3)nn2CCCN2CCOCC2)C1` [Example 14, 3-{4-Chloro-3-[4-(4-iodo-phenoxy)-phenylethynyl]-phenyl}-5-methanesulfonyl-1-(3-morpholin-4-yl-propyl)-4,5,6,7-tetrahydro-1H-pyrazolo[4,3-c]pyridine], the pIC50 is 4.70.

With `CS(=O)(=O)N1CCc2c(c(-c3ccc(Cl)c(C#Cc4ccc(CC(=O)O)cc4)c3)nn2CCCN2CCOCC2)C1` [Example 15, (4-{2-Chloro-5-[5-methanesulfonyl-1-(3-morpholin-4-yl-propyl)-4,5,6,7-tetrahydro-1H-pyrazolo[4,3-c]pyridin-3-yl]-phenylethynyl}-phenyl)-acetic acid, trifluoroacetic acid salt], the pIC50 was 6.82.

As to `CS(=O)(=O)N1CCc2c(c(-c3ccc(Cl)c(C#Cc4cccc(CC(=O)O)c4)c3)nn2CCCN2CCOCC2)C1` [Example 16, (3-{2-Chloro-5-[5-methanesulfonyl-1-(3-morpholin-4-yl-propyl)-4,5,6,7-tetrahydro-1H-pyrazolo[4,3-c]pyridin-3-yl]-phenylethynyl}-phenyl)-acetic acid], the pIC50 is 5.94.

With `CS(=O)(=O)N1CCc2c(c(-c3ccc(Cl)c(C#Cc4ccc(Oc5ccccc5)cc4)c3)nn2CCCN2CCOCC2)C1` [Example 17, 3-[4-Chloro-3-(4-phenoxy-phenylethynyl)-phenyl]-5-methanesulfonyl-1-(3-morpholin-4-yl-propyl)-4,5,6,7-tetrahydro-1H-pyrazolo[4,3-c]pyridine], the negative logarithm of the IC50 (pIC50) was 5.72.

Take `CS(=O)(=O)N1CCc2c(c(-c3ccc(Cl)c(C#Cc4ccc(Br)cc4)c3)nn2CCCN2CCOCC2)C1` [Example 18, 3-[3-(4-Bromo-phenylethynyl)-4-chloro-phenyl]-5-methanesulfonyl-1-(3-morpholin-4-yl-propyl)-4,5,6,7-tetrahydro-1H-pyrazolo[4,3-c]pyridine]: the negative logarithm of the IC50 (pIC50) is 6.74.

Turning to `CS(=O)(=O)N1CCc2c(c(-c3ccc(Cl)c(C#Cc4cccnc4)c3)nn2CCCN2CCOCC2)C1` [Example 21, 3-(4-Chloro-3-pyridin-3-ylethynyl-phenyl)-5-methanesulfonyl-1-(3-morpholin-4-yl-propyl)-4,5,6,7-tetrahydro-1H-pyrazolo[4,3-c]pyridine], the pIC50 is 5.88.

As to `CS(=O)(=O)N1CCc2c(c(-c3ccc(Cl)c(C#Cc4ccccn4)c3)nn2CCCN2CCOCC2)C1` [Example 22, 3-(4-Chloro-3-pyridin-2-ylethynyl-phenyl)-5-methanesulfonyl-1-(3-morpholin-4-yl-propyl)-4,5,6,7-tetrahydro-1H-pyrazolo[4,3-c]pyridine], the pIC50 was 5.73.

The assay is the same for the next values; noted with them: CatS IC50.
Regarding `CS(=O)(=O)N1CCc2c(c(-c3ccc(Cl)c(C#Cc4cccs4)c3)nn2CCCN2CCOCC2)C1` [Example 12, 3-(4-Chloro-3-thiophen-2-ylethynyl-phenyl)-5-methanesulfonyl-1-(3-morpholin-4-yl-propyl)-4,5,6,7-tetrahydro-1H-pyrazolo[4,3-c]pyridine], the pIC50 is 6.10.

`CS(=O)(=O)N1CCc2c(c(-c3ccc(Cl)c(C#Cc4ccc(Cl)c(Cl)c4)c3)nn2CCCN2CCOCC2)C1` [Example 13, 3-[4-Chloro-3-(3,4-dichloro-phenylethynyl)-phenyl]-5-methanesulfonyl-1-(3-morpholin-4-yl-propyl)-4,5,6,7-tetrahydro-1H-pyrazolo[4,3-c]pyridine]: the pIC50 was 6.49.

`COc1ccccc1C#Cc1cc(-c2nn(CCCN3CCOCC3)c3c2CN(S(C)(=O)=O)CC3)ccc1Cl` [Example 24, 3-[4-Chloro-3-(2-methoxy-phenylethynyl)-phenyl]-5-methanesulfonyl-1-(3-morpholin-4-yl-propyl)-4,5,6,7-tetrahydro-1H-pyrazolo[4,3-c]pyridine]: the pIC50 is 6.25.

In the case of `CS(=O)(=O)N1CCc2c(c(-c3ccc(Cl)c(C#Cc4cccc(Cl)c4)c3)nn2CCCN2CCOCC2)C1` [Example 25, 3-[4-Chloro-3-(3-chloro-phenylethynyl)-phenyl]-5-methanesulfonyl-1-(3-morpholin-4-yl-propyl)-4,5,6,7-tetrahydro-1H-pyrazolo[4,3-c]pyridine], the pIC50 is 6.15.

On to `CS(=O)(=O)N1CCc2c(c(-c3ccc(Cl)c(C#Cc4ccccc4Cl)c3)nn2CCCN2CCOCC2)C1` [Example 26, 3-[4-Chloro-3-(2-chloro-phenylethynyl)-phenyl]-5-methanesulfonyl-1-(3-morpholin-4-yl-propyl)-4,5,6,7-tetrahydro-1H-pyrazolo[4,3-c]pyridine], for which the pIC50 was 6.14.

In the case of `CS(=O)(=O)N1CCc2c(c(-c3ccc(Cl)c(C#Cc4ccc(Cl)cc4)c3)nn2CCCN2CCOCC2)C1` [Example 28, 3-[4-Chloro-3-(4-chloro-phenylethynyl)-phenyl]-5-methanesulfonyl-1-(3-morpholin-4-yl-propyl)-4,5,6,7-tetrahydro-1H-pyrazolo[4,3-c]pyridine], the pIC50 is 6.70.

On to `Cc1ccc(C#Cc2cc(-c3nn(CCCN4CCOCC4)c4c3CN(S(C)(=O)=O)CC4)ccc2Cl)cc1` [Example 29, 3-(4-Chloro-3-p-tolylethynyl-phenyl)-5-methanesulfonyl-1-(3-morpholin-4-yl-propyl)-4,5,6,7-tetrahydro-1H-pyrazolo[4,3-c]pyridine], for which the pIC50 was 6.55.

For the compound `CS(=O)(=O)N1CCc2c(c(-c3ccc(Cl)c(C#Cc4ccc(C(F)(F)F)cc4)c3)nn2CCCN2CCOCC2)C1` [Example 30, 3-[4-Chloro-3-(4-trifluoromethyl-phenylethynyl)-phenyl]-5-methanesulfonyl-1-(3-morpholin-4-yl-propyl)-4,5,6,7-tetrahydro-1H-pyrazolo[4,3-c]pyridine], the pIC50 is 6.37.

With `COc1ccc(C#Cc2cc(-c3nn(CCCN4CCOCC4)c4c3CN(S(C)(=O)=O)CC4)ccc2Cl)cc1` [Example 32, 3-[4-Chloro-3-(4-methoxy-phenylethynyl)-phenyl]-5-methanesulfonyl-1-(3-morpholin-4-yl-propyl)-4,5,6,7-tetrahydro-1H-pyrazolo[4,3-c]pyridine], the negative logarithm of the IC50 (pIC50) was 6.31.

As to `CS(=O)(=O)N1CCc2c(c(-c3ccc(Cl)c(C#Cc4ccc(F)cc4F)c3)nn2CCCN2CCOCC2)C1` [Example 33, 3-[4-Chloro-3-(2,4-difluoro-phenylethynyl)-phenyl]-5-methanesulfonyl-1-(3-morpholin-4-yl-propyl)-4,5,6,7-tetrahydro-1H-pyrazolo[4,3-c]pyridine], the pIC50 is 6.12.

Staying with this assay, now noted: CatS IC50, Table 2; average of results obtained.
`CS(=O)(=O)N1CCc2c(c(-c3ccc(Cl)c(C#Cc4ccc(C(=O)O)cc4)c3)nn2CCCN2CCOCC2)C1` [Example 19, 4-{2-Chloro-5-[5-methanesulfonyl-1-(3-morpholin-4-yl-propyl)-4,5,6,7-tetrahydro-1H-pyrazolo[4,3-c]pyridin-3-yl]-phenylethynyl}-benzoic acid]: the pIC50 was 6.38.

In the case of `CS(=O)(=O)N1CCc2c(c(-c3ccc(Cl)c(C#Cc4ccncc4)c3)nn2CCCN2CCOCC2)C1` [Example 20, 3-(4-Chloro-3-pyridin-4-ylethynyl-phenyl)-5-methanesulfonyl-1-(3-morpholin-4-yl-propyl)-4,5,6,7-tetrahydro-1H-pyrazolo[4,3-c]pyridine], the pIC50 is 6.27.

Consider `CS(=O)(=O)N1CCc2c(c(-c3ccc(Cl)c(C#Cc4ccsc4)c3)nn2CCCN2CCOCC2)C1` [Example 23, 3-(4-Chloro-3-thiophen-3-ylethynyl-phenyl)-5-methanesulfonyl-1-(3-morpholin-4-yl-propyl)-4,5,6,7-tetrahydro-1H-pyrazolo[4,3-c]pyridine], for which the pIC50 was 5.84.

Regarding `CS(=O)(=O)N1CCc2c(c(-c3ccc(Cl)c(C#Cc4ccc(F)cc4)c3)nn2CCCN2CCOCC2)C1` [Example 31, 3-[4-Chloro-3-(4-fluoro-phenylethynyl)-phenyl]-5-methanesulfonyl-1-(3-morpholin-4-yl-propyl)-4,5,6,7-tetrahydro-1H-pyrazolo[4,3-c]pyridine], the negative-log IC50 (pIC50) is 6.36.

With `CS(=O)(=O)N1CCc2c(c(-c3ccc(Cl)c(C#Cc4ccccc4C(F)(F)F)c3)nn2CCCN2CCOCC2)C1` [Example 34, 3-[4-Chloro-3-(2-trifluoromethyl-phenylethynyl)-phenyl]-5-methanesulfonyl-1-(3-morpholin-4-yl-propyl)-4,5,6,7-tetrahydro-1H-pyrazolo[4,3-c]pyridine], the pIC50 is 6.06.

Take `Cc1ccccc1C#Cc1cc(-c2nn(CCCN3CCOCC3)c3c2CN(S(C)(=O)=O)CC3)ccc1Cl` [Example 35, 3-(4-Chloro-3-o-tolylethynyl-phenyl)-5-methanesulfonyl-1-(3-morpholin-4-yl-propyl)-4,5,6,7-tetrahydro-1H-pyrazolo[4,3-c]pyridine]: the negative-log IC50 (pIC50) was 5.98.

As to `CS(=O)(=O)N1CCc2c(c(-c3ccc(Cl)c(C#Cc4cccc(C(F)(F)F)c4)c3)nn2CCCN2CCOCC2)C1` [Example 36, 3-[4-Chloro-3-(3-trifluoromethyl-phenylethynyl)-phenyl]-5-methanesulfonyl-1-(3-morpholin-4-yl-propyl)-4,5,6,7-tetrahydro-1H-pyrazolo[4,3-c]pyridine], the pIC50 is 5.84.

Regarding `CS(=O)(=O)N1CCc2c(c(-c3ccc(Cl)c(C#Cc4ccc(C=O)cc4)c3)nn2CCCN2CCOCC2)C1` [Example 37, 4-{2-Chloro-5-[5-methanesulfonyl-1-(3-morpholin-4-yl-propyl)-4,5,6,7-tetrahydro-1H-pyrazolo[4,3-c]pyridin-3-yl]-phenylethynyl}-benzaldehyde], the negative-log IC50 (pIC50) was 6.92.

`CS(=O)(=O)N1CCc2c(c(-c3ccc(Cl)c(C#Cc4ccc(N)cc4)c3)nn2CCCN2CCOCC2)C1` [Example 38, 4-{2-Chloro-5-[5-methanesulfonyl-1-(3-morpholin-4-yl-propyl)-4,5,6,7-tetrahydro-1H-pyrazolo[4,3-c]pyridin-3-yl]-phenylethynyl}-phenylamine]: the pIC50 was 6.48.
